The subject of one experiment is rejection of skin grafts. Briefly: Rejection of tailskin grafts in mice, graft survival (Example B). Format: in vivo, mice (CBA strain donors, Lac/a strain recipients). Here is the method: The tailskin grafting method of Bailey and Usania (Transplantation Bulletin 7, 424-5, 1960) was used.
Sections of tailskin from donor CBA strain mice (agonti) were grafted onto the tails of 16 Lac/a strain mice (albino). Test compound was given from 2 days prior to grafting until graft loss at a dose of 50 mg/kg/day in 1% "Tween 80"/saline vehicle by the intraperitoneal route. Graft condition was assessed daily and mean graft survival time (days) of vehicle, and drug tested groups, was compared.

Experiment [1] deals with delayed contact sensitivity to oxazolone (increase of ear thickness). The experiment can be described thus: Delayed contact sensitivity to oxazolone in mice (Example A). Format: in vivo. The conditions noted are these: for inhibition of increased ear thickness: 24 hours after challenge. Here is the method:
This response is a measure of a cell-mediated immune response which is dependent on the activity of thymus-derived lymphocytes. Mice are sensitised with 100 μl of oxazolone and are subsequently challenged with 15 μl of 3% oxazolone on their right ears on day 7. The resulting cell-mediated response is measured 24 hours after challenge by assessing the increase of ear thickness using a dial gauge. The unchallenged left ears act as controls.

Experiment [2] deals with delayed hypersensitivity reaction to PPD. Briefly: Delayed hypersensitivity reaction to PPD in guinea pigs, topical under occlusion (Example C). The conditions noted are these: for % Inhibition 24h after challenge: Diameter of erythema / % Inhibition 24h after challenge: Erythema score / % Inhibition 24h after challenge: Increase in skin thickness: topical under occlusion, n=6. Format: in vivo. Here is the method:
Male guinea pigs weighing 250-300 g were sensitised by a subcutaneous injection of Freunds Complete Adjuvant (Difco) in saline. Fourteen days following sensitisation animals were challenged intradermally into a shaved flank with 50 μg of purified protein derivative PPD (in 0.1 ml of saline). Changes in skin thickness were determined immediately before and 24 h and 48 h after antigen challenge. In addition, the diameter of reaction and a semiquantitative estimate of the degree of erythema were determined at 24 h and 48 h.
The compound of Example 1 was applied topically under an occlusive dressing. This consisted of adding a solution of the compound in dimethylacetamide (0.3 ml) to a filter paper square (4×4 cm) backed by surgical tape placed on the challenge site and held in place by adhesive bandage encircling the torso of the animal. The dressing was applied 10 min after challenge and removed 24 h later. Control animals received dimethylacetamide alone to the challenge site.
The effect of the compound of Example 1 applied under occlusion, with antigen challenge, on the delayed hypersensitivity reaction to PPD in guinea pigs (n=6)

Structures are written as SMILES.

As for `COc1ccc2c(c1)sc1nc(N)nc(=Nc3ccccc3)n12` [Example 1, 2-Amino-8-methoxy-4-phenylimino-4H-1,3,5-triazino[2,1-b]benzothiazole], the “prolongation of skin graft survival” value with rejection of skin grafts (50 mg/kg/day intraperitoneal from 2 days prior to grafting until graft loss, versus vehicle, significant) came to 2.5 days. Further, the “suppression of the rejection of skin grafts” value in the experiment with rejection of skin grafts (mice, result in words) is “suppress the rejection of skin grafts in mice”. Also, in experiment [1] (mice, result in words), the “inhibition of delayed contact sensitivity to oxazolone” value is recorded as “inhibit a delayed contact sensitivity to oxazolone in mice”. Moreover, the “inhibition of increased ear thickness” value in experiment [1] (single dose 50 mg/kg intraperitoneal on day 1 relative to sensitisation) was 44%; in experiment [1] (single dose 50 mg/kg intraperitoneal on day 2 relative to sensitisation), 44%; in experiment [1] (single dose 50 mg/kg intraperitoneal on day 3 relative to sensitisation) it was 49%; in experiment [1] (single dose 50 mg/kg intraperitoneal on day 7 relative to sensitisation), 61%; in experiment [1] (single dose 50 mg/kg intraperitoneal on one of days -1, 0, 1, 2, 3 or 7 relative to sensitisation, result in words) it was “inhibition of increased ear thickness”. Also, the “% Inhibition 24h after challenge: Diameter of erythema” value was 5% in experiment [2] (1% in dimethylacetamide), 16% in experiment [2] (2% in dimethylacetamide) and 34% in experiment [2] (3% in dimethylacetamide). The “% Inhibition 24h after challenge: Erythema score” value was found to be 20% in experiment [2] (1% in dimethylacetamide), 32% in experiment [2] (2% in dimethylacetamide) and 63% in experiment [2] (3% in dimethylacetamide). The “% Inhibition 24h after challenge: Increase in skin thickness” value in experiment [2] (1% in dimethylacetamide) is reported as 20%; in experiment [2] (2% in dimethylacetamide), 35%; in experiment [2] (3% in dimethylacetamide), 50%. The “inhibition of the increase in skin thickness” value in experiment [2] (1 to 3% in dimethylacetamide, 24 hours post challenge, result in words) is reported as “dose dependent inhibition of the increase in skin thickness”. In addition, the “reaction diameters and erythema scores” value in experiment [2] (1 to 3% in dimethylacetamide, compared with dimethylacetamide controls, result in words) was “significantly reduced the reaction diameters and erythema scores”. In addition, in experiment [2] (guinea pigs, dosed topically, result in words), the “suppression of delayed hypersensitivity reaction” value is on record as “suppress a delayed hypersensitivity reaction in guinea pigs”.

The values above are taken from patent publication US4499269A, “Fused 1,3,5-triazines” (Fisons plc, priority 1982, dated 1985).
